# Results: patent US9983196B2, “Compositions and methods for optimizing drug hydrophobicity and drug delivery to cells” (Bioelastics, Inc., priority 2009, dated 2018)
# Experiments:
# [1] = acid-base titration of elastic-contractile model proteins (pKa shift, Hill plot); format: physicochemical; details: for ΔGap / ΔpKa: chemically-synthesized negatively-charged polymers of FIG. 3
# [2] = controlled release of charged drug from oppositely charged ECMP; format: physicochemical; details: release of Leu-enkephalin amide (LEA+); for zero order release level per day: after burst release, constant surface area
# From the text: For controlled release of pharmaceuticals, positively charged drugs packaged in negatively charged ECMP result in zero-order release. Once the rate of drug release and its ΔGap have been determined for one member of a related family of ECMP, the release rates for another member of the family can be calculated from the acid-base titration data. […] Thus, the thermodynamics of model protein hydration can be determined for a designed ECMP with a known release rate and used to calculate the release rates of a drug from a related ECMP for which only the acid-base titration data has been determined.
# FIG. 3 is a plot showing controlled release of positively charged Leu-enkephalin amide (H+-Tyr-Gly-Gly-Phe-Leu-NH2, (SEQ ID NO:6), LEA+) using chemically-synthesized, negatively-charged polymers with designed increases in hydrophobicity giving ΔpKa values of 0.9, 1.3, and 2.2 and ΔGap values of 1.2, 1.8, and 3.0 kcal/mol-E, respectively. After burst release due to 50% excess drug over polymer sites, a constant surface area maintains zero order release levels per day continuing at 4.7 μmole for 25 days, 2.7 μmole for 30 days, and 1.9 μmole for 70 days, respectively. The amino acid sequences from top to bottom are: SEQ ID NO:12, SEQ ID NO:13 and SEQ ID NO:14.
# FIG. 5 is a pair of graphs of release profiles showing lower rates of drug release as n of nF increases, that is, as increasing numbers of Val (V) residues are replaced by Phe (F) residues using the series of Lys(K)/Phe(F)-containing model proteins of Table 3 with Φ=K. As the negatively-charged drug is added to the soluble positively-charged model protein phase separation occurs. Drug is added to a 50% excess, which is responsible for the burst release. A. Dexamethasone-phosphate release curves and B. Betamethasone-phosphate release curves.
# [3] = cited from earlier work; for ΔG°HA(GχGVP): reference GGGVP = 0; for ΔG°HA(GχGVP) (from graph): Tt used to obtain value from experimental sigmoid curve of Tt versus ΔG°HA; for ΔG°HA(GχGVP) (data within parentheses): microbial preparations of poly(30 mers), n ≈ 40
# [4] = cited from earlier work; for Tt: guest residue χ in poly[fχ(GχGVP),fv(GVGVP)], extrapolated to fχ=1, some cells marked (Tt); for Tt (data within parentheses): microbial preparations of poly(30 mers) (GVGVP GVGVP GχGVP GVGVP GVGVP GVGVP)n, n ≈ 40
# [5] = differential scanning calorimetry of the inverse temperature transition: ΔGHA-based hydrophobicity scale; format: physicochemical; details: from Table 1
# From the text: Described herein is a hydrophobicity scale based on the change in Gibbs free energy of hydrophobic association. Increase in entropy of water drives endothermic phase transition of hydrophobic association. For a narrow phase transition the chemical potential, t, of the molecules in the phase separated, hydrophobically associated state, 1.IHA, and the solution, hydrophobically dissociated state, 1.1HD, are equal. Therefore, at constant temperature and pressure, i.e., at equilibrium, the change in Gibbs free energy for the phase transition is zero, (ΔGt)TP=0 and ΔHT=TtΔSt. For the breadth of the transition of elastic-contractile model proteins [ECMP], it is written: ΔHt≈TtΔSt, (1) i.e., the heat of the transition, ΔHt in kcal/mol, is approximated by the product of the temperature of the transition, Tt in ° K, times the entropy change attending the transition, ΔSt in kcal/° K-mol.
# The van der Walls interaction is exothermic for the hydrophobic association attending the ITT, yet the ITT is endothermic. […] The derivation of the change in Gibbs free energy for hydrophobic association, ΔGHA, and evaluation by inverse temperature transition of hydrophobic association has been reported previously (D. W. Urry, The Change in Gibbs Free Energy for Hydrophobic Association Derivation and Evaluation by means of Inverse Temperature Transitions. Chem. Phys. Letters 399 (2004) 177-183.), and is given more simply below. […]
# Given the above approximation, but also recognizing that ASt is a calculated result from the differential scanning calorimetric measurement of ΔHt, we define the change in Gibbs free energy for hydrophobic association, ΔGHA, as,
# The differential scanning calorimetry (DSC) data of ΔHt(GVGVP) (SEQ ID NO:4) and ΔHt(GVGIP) (SEQ ID NO:8) in FIG. 1 of Luan and Urry, J Phys Chem 95:7896-7900, 1991 provide a specific example of the difference that defines ΔGHA. […] This is the same value of 1.5 kcal/mol-CH2 for the addition of a single CH2 as determined by Butler for the alcohol series.
# Once the values are determined by difference with ΔHt(GVGVP) (SEQ ID NO:4) as represented in FIG. 1E, they are translated so the reference polymer is taken as (GGGVP (SEQ ID NO:11), as this residue is considered to be close to neutral, being neither polar nor apolar. For use of (GGGVP) (SEQ ID NO:11) as the reference, i.e., ΔHt(GGGVP) (SEQ ID NO:11)=AHt(ref), in Table 3 and FIG. 13, the change in Gibbs free energy for hydrophobic association is indicated as ΔG^oHA, i.e., […]
# In this case most of the ΔG^oHA values have been obtained by taking the experimental Tt, suitably extrapolated to fx=1 to obtain Tt, and reading the value of ΔG^oHA from the sigmoid curve of FIG. 13. […]
# [6] = Φ = E (glutamic acid, —COOH), cited from earlier work; for (∂ΔG/∂α) slope: from Hill plot; for ΔGgp (pKa shift): unperturbed pKa taken as 4.0
substance,measurement,setting,value
(GFGFPGEGFPGFGFPGFGFPGEGFPGFGFP)n (GFGFPGEGFPGFGFP) [ECMP2E/10F],pK of the carboxylate,[1],~6.2
same,ΔGap,[1],3.0 kcal/mol-E
same,ΔpKa,[1],2.2
same,duration of zero order release,[2],70 days
same,zero order release level per day,[2],1.9 µmol
(GVGIP) [pentamer polymer with a single CH2 added to GVGVP],ΔGHA due to the addition of a single CH2,"[3]; DSC, difference of ΔHt(GVGVP) and ΔHt(GVGIP)",−1.5 kcal/mol-pentamer
Asn [N: Asn],Tt,[4],50 °C
same,ΔG°HA(GχGVP),[3]; DSC,−0.05 kcal/mol-pentamer
Asp(COOH) [D°: Asp(COOH)],Tt,[4],40 °C
same,ΔG°HA(GχGVP),[3]; DSC,−0.40 kcal/mol-pentamer
Asp(COO−) [D−: Asp(COO−)],Tt,[4],170 (Tt) ° C.
same,ΔG°HA(GχGVP) (from graph),[3],≈+3.4 (from graph) kcal/mol-pentamer
Cys [C: Cys],Tt,[4],30 (Tt) ° C.
same,ΔG°HA(GχGVP) (from graph),[3],−1.90 (from graph) kcal/mol-pentamer
Gln [Q: Gln],Tt,[4],70 °C
same,ΔG°HA(GχGVP),[3]; DSC,+0.75 kcal/mol-pentamer
Glu(COOH) [E°: Glu(COOH)],Tt,[4],20 °C
same,Tt (data within parentheses),[4],2 °C
same,ΔG°HA(GχGVP),[3]; DSC,−1.30 kcal/mol-pentamer
same,ΔG°HA(GχGVP) (data within parentheses),[3],−1.50 kcal/mol-pentamer
Glu(COO^−) [E−: Glu(COO^−)],Tt (data within parentheses),[4],(218) ° C.
same,ΔG°HA(GχGVP) (data within parentheses),[3],(+3.72) kcal/mol-pentamer
same,ΔGHA of ionization (neutral versus charged residue),[5],5.2 kcal/mol-pentamer
Gly [G: Gly],Tt,[4],55 °C
same,ΔG°HA(GχGVP),[3]; DSC,0.00 kcal/mol-pentamer
His+ [H+: His+],Tt,[4],30 (Tt) ° C.
same,ΔG°HA(GχGVP) (from graph),[3],−1.90 (from graph) kcal/mol-pentamer
His° [H°: His°],Tt,[4],−10 (Tt) ° C.
same,ΔG°HA(GχGVP) (from graph),[3],−4.80 (from graph) kcal/mol-pentamer
Ile [I: Ile],Tt,[4],10 °C
same,ΔG°HA(GχGVP),[3]; DSC,−3.65 kcal/mol-pentamer
Leu [L: Leu],Tt,[4],5 °C
same,ΔG°HA(GχGVP),[3]; DSC,−4.05 kcal/mol-pentamer
same,change on replacement of Val by Leu (single —CH2—),[5],−1.55 kcal/mol-CH2
Lys(NH2) [K°: Lys(NH2)],Tt,[4],40 °C
same,Tt (data within parentheses),[4],38 °C
same,ΔG°HA(GχGVP),[3]; DSC,−0.05 kcal/mol-pentamer
same,ΔG°HA(GχGVP) (data within parentheses),[3],−0.60 kcal/mol-pentamer
Lys(NH3+) [K+: Lys(NH3+)],Tt (data within parentheses),[4],(104) ° C.
same,ΔG°HA(GχGVP) (data within parentheses),[3],(+2.94) kcal/mol-pentamer
same,ΔGHA of ionization (neutral versus charged residue),[5],3.5 kcal/mol-pentamer
Met [M: Met],Tt,[4],15 °C
same,ΔG°HA(GχGVP),[3]; DSC,−1.50 kcal/mol-pentamer
"N-methyl-6-OH 1,4,5,6-tetrahydronicotinamide [Lys (6-OH tetrahydro NMeN)]",Tt linearly extrapolated to fX = 1,"[4]; poly[fV(VPGVG),fX(VPGXG)], 5.0 mg/ml polymer, 0.1M potassium bicarbonate pH 9.5, 0.1M KCl",15 °C
same,ΔG°HA from FIG. 13,"[3]; gross estimates from Tt and curve, 5.0 mg/ml polymer, 0.1M potassium bicarbonate pH 9.5, 0.1M KCl",-3.5 kcal/mol
Phe [F: Phe],Tt,[4],−45 °C
same,ΔG°HA(GχGVP),[3]; DSC,−6.15 kcal/mol-pentamer
Pro [P: Pro],Tt,[4],40 °C
same,ΔG°HA(GχGVP),[3]; DSC,−1.10 kcal/mol-pentamer
"SEQ ID NO:12: chemically-synthesized, negatively-charged polymer of FIG. 3, top sequence, least hydrophobic (GVGFPGEGFPGVGVP)",ΔGap,[1],1.2 kcal/mol-E
same,ΔpKa,[1],0.9
same,duration of zero order release,[2],25 days
same,zero order release level per day,[2],4.7 µmol
"SEQ ID NO:13: chemically-synthesized, negatively-charged polymer of FIG. 3, middle sequence (GEGVPGVGVPGVGFPGFGFPGVGVPGVGVP)",ΔGap,[1],1.8 kcal/mol-E
same,ΔpKa,[1],1.3
same,duration of zero order release,[2],30 days
same,zero order release level per day,[2],2.7 µmol
Ser [S: Ser],Tt,[4],60 °C
same,ΔG°HA(GχGVP),[3]; DSC,+0.55 kcal/mol-pentamer
Thr [T: Thr],Tt,[4],60 °C
same,ΔG°HA(GχGVP),[3]; DSC,−0.60 kcal/mol-pentamer
Trp [W: Trp],Tt,[4],−105 °C
same,ΔG°HA(GχGVP),[3]; DSC,−7.00 kcal/mol-pentamer
Tyr [Y: Tyr],Tt,[4],−75 °C
same,ΔG°HA(GχGVP),[3]; DSC,−5.85 kcal/mol-pentamer
Tyr(ϕ-O−) [Y−: Tyr(ϕ-O−)],Tt,[4],140 °C
same,ΔG°HA(GχGVP),[3]; DSC,+1.95 kcal/mol-pentamer
Val [V: Val],Tt,[4],26 °C
same,ΔG°HA(GχGVP),[3]; DSC,−2.50 kcal/mol-pentamer
[GVGVP GVGFP GΦGFP GVGVP GVGFP GFGFP]n(GVGVP) (GVGVPGVGFPGGFPGVGVPGVGFPGFGFPGVGVP) [E/5F],(∂ΔG/∂α) slope,[6],3.0 kcal/mol
same,ΔGgp (pKa shift),[6],3.1 kcal/mol
[GVGVP GVGFP GΦGFP GVGVP GVGFP GVGFP]n(GVGVP) (GVGVPGVGFPGGFPGVGVPGVGFPGVGFPGVGVP) [E/4F],(∂ΔG/∂α) slope,[6],2.2 kcal/mol
same,ΔGgp (pKa shift),[6],2.2 kcal/mol
[GVGVP GVGFP GΦGFP GVGVP GVGVP GVGVP]n(GVGVP) (GVGVPGVGFPGGFPGVGVPGVGVPGVGVPGVGVP) [E/2F],(∂ΔG/∂α) slope,[6],1.3 kcal/mol
same,ΔGgp (pKa shift),[6],1.0 kcal/mol
[GVGVP GVGVP GΦGVP GVGVP GVGFP GFGFP]n(GVGVP) (GVGVPGVGVPGGVPGVGVPGVGFPGFGFPGVGVP) [E/3F],(∂ΔG/∂α) slope,[6],1.7 kcal/mol
same,ΔGgp (pKa shift),[6],1.6 kcal/mol
[GVGVP GVGVP GΦGVP GVGVP GVGVP GVGVP]n(GVGVP) (GVGVPGVGVPGGVPGVGVPGVGVPGVGVPGVGVP) [E/0F],(∂ΔG/∂α) slope,[6],1.1 kcal/mol
same,ΔGgp (pKa shift),[6],0.7 kcal/mol
